Measurements: publication PMC9865363, “Identification of Human UDP-Glucuronosyltransferase Involved in Gypensapogenin C Glucuronidation and Species Differences” (International Journal of Molecular Sciences, 2023)

How the values were obtained:
recombinant human UGT1A4 = biological target: T1, recombinant human UGT1A4 (Homo sapiens, UniProt P22310); assay: Recombinant human UGT enzyme assay of GPC glucuronidation, UGT1A4; format: in vitro ADME; details: recombinant UGT1A4 0.1 mg/mL, GPC 1 and 10 μM
T1 construct: purchased Cypex (Scotland, UK)
T1 sequence (P22310 29-534): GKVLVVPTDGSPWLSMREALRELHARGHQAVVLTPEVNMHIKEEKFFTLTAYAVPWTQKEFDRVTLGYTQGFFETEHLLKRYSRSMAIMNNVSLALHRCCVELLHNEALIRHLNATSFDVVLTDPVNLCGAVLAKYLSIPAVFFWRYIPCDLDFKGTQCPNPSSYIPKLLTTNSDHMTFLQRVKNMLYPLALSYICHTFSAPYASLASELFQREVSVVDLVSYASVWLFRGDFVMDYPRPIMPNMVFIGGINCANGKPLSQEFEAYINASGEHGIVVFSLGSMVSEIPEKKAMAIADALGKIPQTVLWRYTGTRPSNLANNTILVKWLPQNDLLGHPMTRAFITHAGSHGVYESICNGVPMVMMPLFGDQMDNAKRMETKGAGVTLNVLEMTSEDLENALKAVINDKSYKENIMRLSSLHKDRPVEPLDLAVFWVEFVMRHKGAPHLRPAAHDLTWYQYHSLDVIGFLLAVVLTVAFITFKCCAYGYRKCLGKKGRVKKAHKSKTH
Description: (§1) The glucuronidation incubation system consisted of Tris-HCl buffer (50 mM, pH = 7.4), magnesium chloride (4 mM), alamethicin (12.5 μg/mL), human liver microsomes (0.5 mg/mL), UDPGA (100 mM), and GPC (20 μM).
(§2) The glucuronidation metabolic activity of GPC at two concentration levels (1 and 10 μM) was determined using an incubation system with 10 recombinant human UGT enzymes (UGT1A1, 1A3, 1A4, 1A6, 1A7, 1A8, 1A9, 1A10, 2B7, 2B17) (0.1 mg/mL). The incubation conditions were the same as in Section 4.3, except for the protein concentration of 0.1 mg/mL. Lastly, metabolites were detected using LC–MS/MS.

[1] = test system: recombinant human UGT1A1, 1A3, 1A6, 1A7, 1A8, 1A9, 1A10, 2B7, and 2B17; assay: Recombinant human UGT enzyme assay of GPC glucuronidation, remaining isoenzymes; format: in vitro ADME; details: remaining recombinant UGT isoenzymes 0.1 mg/mL, GPC 1 and 10 μM
Description: as §1, §2

[2] = GPC glucuronidation in rat liver microsomes (enzyme kinetics, species comparison); details: Sprague-Dawley, rat, rat liver microsomes, pH 7.4
[3] = test system: glucuronidation (GPCG formation); assay: as above; details: Sprague-Dawley, rat, rat liver microsomes, pH 7.4
[4] = test system: rat liver microsomes (RLM); assay: as above; details: 30 min
[5] = GPC glucuronidation in dog liver microsomes (enzyme kinetics, species comparison); details: Beagle, dog, dog liver microsomes, pH 7.4
[6] = test system: dog liver microsomes (DLM); assay: as above; details: 30 min
[7] = test system: glucuronidation (GPCG formation); assay: as above; details: Beagle, dog, dog liver microsomes, pH 7.4
[8] = GPC glucuronidation in pig liver microsomes (enzyme kinetics, species comparison); details: minipig, pig, pig liver microsomes, pH 7.4
[9] = test system: glucuronidation (GPCG formation); assay: as above; details: pig, pig liver microsomes, pH 7.4
[10] = test system: pig liver microsomes (PLM); assay: as above; details: 30 min
[11] = GPC glucuronidation in human liver microsomes (enzyme kinetics, species comparison); details: human, human liver microsomes, pH 7.4
[12] = test system: glucuronidation (GPCG formation); assay: as above; details: human, human liver microsomes, pH 7.4
[13] = test system: human liver microsomes (HLMs); assay: as above; details: 30 min
[14] = GPC glucuronidation in mouse liver microsomes (enzyme kinetics, species comparison); details: ICR/CD-1, mouse, mouse liver microsomes, pH 7.4
[15] = test system: glucuronidation (GPCG formation); assay: as above; details: ICR/CD-1, mouse, mouse liver microsomes, pH 7.4
[16] = test system: mouse liver microsomes (MLM); assay: as above; details: MLMs 0.2 mg/mL, GPC 2–200 μM, 30 min, substrate inhibition fit
[17] = GPC glucuronidation in rabbit liver microsomes (enzyme kinetics, species comparison); details: New Zealand, rabbit, rabbit liver microsomes, pH 7.4
[18] = test system: glucuronidation (GPCG formation); assay: as above; details: New Zealand, rabbit, rabbit liver microsomes, pH 7.4
[19] = test system: rabbit liver microsomes (RaLM); assay: as above; details: RaLMs 0.2 mg/mL, GPC 2–200 μM, 30 min, substrate inhibition fit
[20] = GPC glucuronidation in bovine liver microsomes (enzyme kinetics, species comparison); details: bovine, bovine liver microsomes, pH 7.4
[21] = test system: bovine liver microsomes (BLM); assay: as above; details: 30 min
[22] = test system: glucuronidation (GPCG formation); assay: as above; details: bovine, bovine liver microsomes, pH 7.4
[23] = GPC glucuronidation in monkey liver microsomes (enzyme kinetics, species comparison); details: monkey, monkey liver microsomes, pH 7.4
[24] = test system: glucuronidation (GPCG formation); assay: as above; details: monkey, monkey liver microsomes, pH 7.4
[25] = test system: monkey liver microsomes (MkLM); assay: as above; details: 30 min
[26] = test system: GPC glucuronidation in human liver microsomes; assay: Chemical inhibition of GPC glucuronidation in human liver microsomes; details: GPC 15 μM, HLMs 0.2 mg/mL, 30 min
Description: (§3) The glucuronidation incubation system consisted of Tris-HCl buffer (50 mM, pH = 7.4), magnesium chloride (4 mM), alamethicin (12.5 μg/mL), human liver microsomes (0.5 mg/mL), UDPGA (100 mM), and GPC (20 μM). […] The incubation system was first preincubated at 37 °C for 3 min before adding UDPGA to initiate the reaction. The reaction was terminated […] with the addition of an equal volume of iced acetonitrile (containing 30 μM PPT). After vortexing for 3 min, the supernatant obtained was centrifuged at 14,300 rpm for 15 min at 4 °C and used for LC–MS/MS analysis.
(§4) Glucuronidation metabolism of GPC in HLMs was inhibited using hecogenin, phenylbutazone, fluconazole, and magnolol. The concentrations of the four inhibitors were set to 1, 10, 50, and 200 μM, and the concentration of GPC was set to 15 μM. The incubation time and protein concentration were […], respectively. All the rest of the incubation conditions were as in Section 4.3. The incubation without inhibitor but with the same volume of DMSO was set to be the solvent control.

GPC glucuronidation = assay: as above; details: human, pH 7.4
Description: as §3, §4

[27] = inhibitor 1, 10, 50, and 200 μM

Compound: CC(C)=C1CC=C([C@H]2CC[C@]3(C)[C@@H]2CC[C@@H]2[C@@]4(C)CC[C@H](O)C(C)(C)[C@@H]4CC[C@]23C)C1=O [GPC, Gypensapogenin C]
- catalytic activity for GPC glucuronidation (recombinant human UGT1A4): highest catalytic activity
- catalytic activity for GPC glucuronidation [1]: none of the remaining UGT isoenzymes showed activity
- microsomal CLint [2]: 40 µL/min/mg
- Km at 30 min [3]: 94.1 ± 89.8 µM
- Vmax ([4]; RLMs 0.2 mg/mL, GPC 2–200 μM, substrate inhibition fit): 3.80 ± 3.01 nmol/min/mg
- GPC glucuronidation product generation (semiquantitative, peak area ratio) ([4]; rat liver microsomes 0.2 mg/mL, GPC 10 and 50 μM): Trace amounts
- microsomal CLint [5]: 2120 µL/min/mg
- Vmax ([6]; DLMs 0.2 mg/mL, GPC 2–200 μM, substrate inhibition fit): 20.28 ± 2.57 nmol/min/mg
- GPC glucuronidation product generation (semiquantitative, peak area ratio) ([6]; dog liver microsomes 0.2 mg/mL, GPC 10 and 50 μM): highest amounts
- Km at 30 min [7]: 9.56 ± 2.83 µM
- microsomal CLint [8]: 147 µL/min/mg
- Km at 30 min [9]: 9.58 ± 2.32 µM
- Vmax ([10]; PLMs 0.2 mg/mL, GPC 2–200 μM, substrate inhibition fit): 1.41 ± 0.18 nmol/min/mg
- GPC glucuronidation product generation (semiquantitative, peak area ratio) ([10]; pig liver microsomes 0.2 mg/mL, GPC 10 and 50 μM): Trace amounts
- microsomal CLint [11]: 27 µL/min/mg
- Km at 30 min [12]: 15.4 ± 5.26 µM
- Vmax ([13]; HLMs 0.2 mg/mL, GPC 2–200 μM, substrate inhibition fit): 0.42 ± 0.09 nmol/min/mg
- GPC glucuronidation product generation (semiquantitative, peak area ratio) ([13]; human liver microsomes 0.2 mg/mL, GPC 10 and 50 μM): Trace amounts
- microsomal CLint [14]: 690 µL/min/mg
- Km at 30 min [15]: 10 ± 2.1 µM
- Vmax [16]: 6.93 ± 0.69 nmol/min/mg
- microsomal CLint [17]: 304 µL/min/mg
- Km at 30 min [18]: 16.2 ± 3.77 µM
- Vmax [19]: 4.92 ± 0.57 nmol/min/mg
- microsomal CLint [20]: 259 µL/min/mg
- Vmax ([21]; BLMs 0.2 mg/mL, GPC 2–200 μM, substrate inhibition fit): 3.17 ± 0.89 nmol/min/mg
- GPC glucuronidation product generation (semiquantitative, peak area ratio) ([21]; bovine liver microsomes 0.2 mg/mL, GPC 10 and 50 μM): Trace amounts
- Km at 30 min [22]: 12.2 ± 5.16 µM
- microsomal CLint [23]: 77 µL/min/mg
- Km at 30 min [24]: 107 ± 73.2 µM
- Vmax ([25]; MkLMs 0.2 mg/mL, GPC 2–200 μM, substrate inhibition fit): 8.29 ± 4.69 nmol/min/mg
- GPC glucuronidation product generation (semiquantitative, peak area ratio) ([25]; monkey liver microsomes 0.2 mg/mL, GPC 10 and 50 μM): Trace amounts

Compound: C=CCc1ccc(O)c(-c2cc(CC=C)ccc2O)c1 [Magnolol, magnolol]
- inhibition of GPC glucuronidation (in words) ([26]; inhibitor 1–50 μM): insignificant inhibition
- inhibition at 30 min, 200 μM (GPC glucuronidation): 50%

Compound: OC(Cn1cncn1)(Cn1cncn1)c1ccc(F)cc1F [fluconazole]
- inhibition of GPC glucuronidation (in words) [26, 27]: Neither fluconazole nor phenylbutazone inhibited

Compound: CCCCC1C(=O)N(c2ccccc2)N(c2ccccc2)C1=O [phenylbutazone]
- inhibition of GPC glucuronidation (in words) [26, 27]: Neither fluconazole nor phenylbutazone inhibited

Compound: hecogenin
- inhibition of GPC glucuronidation ([26]; inhibitor 1 μM): more than 40%
- inhibition of GPC glucuronidation ([26]; inhibitor 10 μM): 70%
